Measurements published in patent US20040084383A1, “Method to inhibit growth of microorganisms in aqueous systems and on substrates using a persulfate and a bromide” (BUCKMAN LABORATORIES INTERNATIONAL, INC., priority 2002, published 2004).

Test system: Pseudomonas aeruginosa
Assay: Antimicrobial efficacy in inoculated pulp slurry (24 hr incubation, plated in nutrient agar, cfu/ml counted)
Assay type: cell-based
Method: A concentrated solution of active biocidal composition was prepared by mixing 44% (w/v) of aqueous ammonium persulfate with 40% (w/v) aqueous sodium bromide in equal volume. The final mixture contains 22% ammonium persulfate and 20% NaBr at pH 2.2. The molar ratio of the components was 1:2 for (NH4)2S2O8:NaBr. Four hours after mixing, the concentrated solution was diluted with water to contain 5% ammonium persulfate. This diluted solution (5%) was then added to 50 ml pulp slurry to give a biocidal concentration of 10 ppm (as ammonium persulfate) in pulp slurry. The pulp slurry was then inoculated with 3×10^6 cells/ml of Pseudomonas aeruginosa, incubated at room temperature for 24 hr, plated in nutrient agar. The colony forming units per milliliter (cfu/ml) was counted and compared with each individual component acting alone.
The pulp slurry contains white bleached dry pulp at 5 g/L; cationic starch at 10 bl/ton dry pulp; CaCO3 at 300 bl/ton dry pulp; ASA size at 3-4 lb/ton dry pulp; retention aids at 0.5-1.0 bl/ton dry pulp; defoamer at 250 g/ton dry pulp. The pulp slurry has a consistency of about 0.5 to 0.7%. The final pH of the pulp substrate after autoclave is about 8.0. […] Neither component acting alone provides significant antimicrobial efficacy.
The antimicrobial efficacy of the mixture containing 22% (w/v) aqueous ammonium persulfate and 20% (w/v) aqueous NaBr was tested at different times after mixing, aging times. The mixture preparation, at pH 2.2, and the test system are the same as that described in Example 1. At each time, a portion of the mixture was taken and diluted to 5% (as ammonium persulfate). The diluted solution was then added to pulp slurry to give a final concentration of 5, 10, 20, and 40 ppm (as ammonium persulfate) in pulp slurry. […] At only 5 ppm level, it achieved 2.5 logs reduction, which represents greater than 99% kill. […] It requires about 4 hr to provide significant activity. At about 8 hr after mixing, the mixed solution reached the maximum activity. The biocidal efficacy of the mixture was maintained or stabilized for at least 7 days.
Three mixtures were generated. Mixture #1 was prepared by mixing 22% (NH4)2S2O8 with 20% NaBr in equal volume. The final concentrations in mixture #1 were 11% (NH4)2S2O8 and 10% NaBr. Mixture #2 was made by mixing 33% (NH4)2S2O8 with 30% NaBr in equal volume. The final concentrations in Mixture #2 were 16.5% (NH4)2S2O8 and 15% NaBr. Mixture #3 was prepared by mixing 44% (NH4)2S2O8 with 40% NaBr in equal volume. In the final solution, Mixture #3 contains 22% (NH4)2S2O8 and 20% NaBr. All three mixtures, having a pH 2.2, were tested at a dosage of 20 ppm, and at 1, 2, 4, and 8 hr after mixing for their antimicrobial activity in the pulp slurry described in Example 1. […]

[1] = 100 ppm as pure compound in pulp slurry
[2] = 1000 ppm as pure compound in pulp slurry

Row | Compound | CFU/ml [1] | Log Reduction [1] | CFU/ml [2] | Log Reduction [2]
1 | N.N.O=S(=O)(O)OOS(=O)(=O)O [(NH4)2S2O8, ammonium persulfate] | 4.5 × 10^5 CFU/ml | 0.97 |  | 
2 | [Br-].[Na+] [NaBr, sodium bromide] |  |  | 4.2 × 10^6 CFU/ml | 0.00
